Read-outs that look alike come from different tables or passages of the source. One block for each molecule: values may come before it.
Assays:
c-KIT [1] = target: T1, c-KIT (Homo sapiens, UniProt P10721); assay: c-KIT mass spectral analysis of tryptic digest; format: binding; settings: 3 hours at 10× excess, tryptic digest MALDI-TOF
Description: (§1) Iodoacetamide was used as the alkylating agent after compound incubation. For tryptic digests a 5 μl aliquot (14 pmols) was diluted with 10 ul of 0.1% TFA prior to micro C18 Zip Tipping directly onto the MALDI target using alpha cyano-4-hydroxy cinnamic acid as the matrix (5 mg/ml in 0.1% TFA:acetonitrile 50:50).
The tryptic digest was analyzed by mass spectrometer (MALDI-TOF).
as §1, with “incubation. […]” for “incubation.”, “a 2” for “a 5”, “aliquot (3.3” for “aliquot (14”, “10 μl” for “10 ul”, “0.1% TFA:Acetonitrile” for “0.1% TFA:acetonitrile”
For tryptic digests the instrument was set in Reflectron mode with a pulsed extraction setting of 2200. […] Calibration for fragments was done using the P14R fragmentation calibration for the Curved field Reflectron.

cKIT in GIST882 cells = target: T2, cKIT in GIST882 cells (Homo sapiens, UniProt P10721, K642E); assay: GIST882 cellular assay with washout (western blot); format: cell-based; settings: for cKIT autophosphorylation / downstream signaling of ERK: 1 micromolar
T2 construct: endogenous in cells; host or cells: GIST882 cells
Description: GIST882 cells were seeded in a 6 well plate at a density of 8×10^5 cells/well in complete media. The next day cells were treated with 1 uM compound diluted in complete media for 90 minutes. After 90 minutes, the media was removed and cells were washed with compound-free media. Cells were washed every 2 hours and resuspended in fresh compound-free media.

c-KIT [2] = target: T1, c-KIT; assay: cKIT inhibition assay (electrophoretic mobility shift); format: biochemical; set-up: purchased Millipore 14-559
Description: The reaction was started by adding the ATP and incubating for 1 hour at room temperature. […] Phosphorylated and unphosphorylated substrate was separated by charge using electrophoretic mobility shift.

Btk = target: T3, Btk (Homo sapiens, UniProt Q06187); assay: Omnia assay for potency against Btk; settings: biochemical assay; read-out: IC50 Btk kinase
T3 construct: purchased Invitrogen
Description: The protocol below describes continuous-read kinase assays to measure inherent potency of compounds against active forms of Btk enzyme. The mechanics of the assay platform are best described by the vendor (Invitrogen, Carlsbad, Calif.) on the world wide web at invitrogen.com/site/us/en/home/Products-and-Services/Applications/Drug-Discovery/Target-and-Lead-Identification-and-Validation/KinaseBiology/KB-Misc/Biochemical-Assays/Omnia-Kinase-Assays.html. Briefly, 10× stocks of 5 nM Btk from Invitrogen, 1.13×40 μM ATP (AS001A) and 10 μM (ATP KMapp ˜[…]) Tyr-Sox conjugated peptide substrates (KCZ 1001) were prepared in 1× kinase reaction buffer consisting of 20 mM Tris, pH 7.5, 5 mM MgCl2, 1 mM EGTA, 5 mM β-glycerophosphate, 5% glycerol (10× stock, KBOO2A) and 0.2 mM DTT (DS001A).

[3] = target: HCV NS3/4A 1b protease WT (Hepatitis C virus genotype 1b, UniProt P26662); assay: HCV Protease FRET Assay for wild type NS3/4A 1b enzyme (IC50); format: biochemical; settings: 30 min pre-incubation
HCV RNA replicon = assay: Replicon assay (luciferase, ET Huh7 cell line); settings: Hepatitis C virus, Huh-7, 72 h, read-out: EC50 replicon assay
Description: The compounds were assayed to evaluate the antiviral activity and cytotoxicity of compounds using replicon-derived luciferase activity. This assay used the cell line ET (luc-ubi-neo/ET), which is a human Huh7 hepatoma cell line that contains an HCV RNA replicon with a stable luciferase (Luc) reporter and three cell culture-adaptive mutations.
The ET cell line was grown in Dulbecco's modified essential media (DMEM), 10% fetal bovine serum (FBS), 1% penicillin-streptomycin (pen-strep), 1% glutamine, 1% non essential amino acid, 400 μg/mL G418 in a 5% CO2 incubator at 37° C. All cell culture reagents were obtained from Invitrogen(Carlsbad). Cells were trypsinized (1% trypsin:EDTA) and plated out at 5×10^3 cells/well in white 96-well assay plates (Costar) dedicated to cell number (cytotoxicity) or antiviral activity assessments. Compounds were added at six 3-fold concentrations each and the assay was run in DMEM, 5% FBS, 1% pen-strep, 1% glutamine, 1% non essential amino acid. Human interferon alpha-2b (PBL Biolabs, New Brunswick, N.J.) was included in each run as a positive control compound. Cells were processed 72 hr post compound addition when the cells are still subconfluent. Antiviral activity was measured by analyzing replicon-derived luciferase activity using the Steady-Glo Luciferase Assay System (Promega, Madison, Wis.) according to manufacturer's instruction. The number of cells in each well was determined by Cell Titer Blue Assay (Promega).

[4] = target: HCV NS3/4A 1b protease D168A (Hepatitis C virus genotype 1b, UniProt P26662, D1194A); assay: HCV Protease FRET Assay for mutated NS3/4A 1b enzyme (IC50); format: biochemical; settings: 30 min pre-incubation
Excerpt: 279, No. 17, pp 17508-17514.

CSF1R (FMS) = CSF1R (FMS) (Homo sapiens, UniProt P07333); assay: CSF1R inhibition assay (Z'-LYTE); format: biochemical; settings: read-out: % inhibition of CSF1R
Description: Compounds were assayed as inhibitors of […] in a manner substantially similar to the method described by Invitrogen Corp (Invitrogen Corporation, 1600 Faraday Avenue, Carlsbad, Calif., CA) using the […] biochemical assay procedure or similar biochemical assay. The 2×CSF1R (FMS)/[…] Peptide Mixture was prepared in 50 mM HEPES pH 7.5, 0.01% BRIJ-35, 10 mM MgCl2, 1 mM EGTA. The final […] Kinase Reaction consisted of 0.2-67.3 ng CSF1R (FMS) and 2 μM […] Peptide in 50 mM HEPES pH 7.5, 0.01% BRIJ-35, 10 mM MgCl2, 1 mM EGTA. After the 1 hour Kinase Reaction incubation, 5 μL of a 1:128 dilution of Development Reagent B was added.

CSF1R = CSF1R (Homo sapiens, UniProt P07333); assay: CSF1R mass spectral analysis of tryptic digest; format: binding; settings: 3 hrs at 10× excess, tryptic digest MALDI
Description: Iodoacetamide was used as the alkylating agent after compound incubation. For tryptic digests, a 2 μl aliquot (0.09 μg/μl) was diluted with 10 μl of 0.1% TFA prior to micro C18 Zip Tipping directly onto the MALDI target using alpha cyano-4-hydroxy cinnamic acid as the matrix (5 mg/ml in 0.1% TFA:Acetonitrile 50:50).
For tryptic digests, the instrument was set in Reflectron mode with a pulsed extraction setting of 1800. Calibration was done using the Laser Biolabs Pep Mix standard (1046.54, 1296.69, 1672.92, 2093.09, 2465.20). For CID/PSD analysis the peptide was selected using cursors to set ion gate timing and fragmentation occurred at a laser power about 20% higher and He was used as the collision gas for CID. Calibration for fragments was done using the P14R fragmentation calibration for the Curved field Reflectron. Database searching of the tryptic digest of CSF identified it correctly. […] PSD analysis of this peptide signal (1160.50) gave enough fragments to allow for a database MS/MS ion search which verified the sequence of this peptide.

HCV NS3/4A 1b protease = HCV NS3/4A 1b protease (Hepatitis C virus genotype 1b, UniProt P26662); assay: biochemical
Description: An HCV Protease FRET Assay for HCV NS3/4A 1b Enzyme (IC50_APP) was used. The following protocol was used to generate “apparent” IC50 (IC50_APP) values. […] Protease reactions were immediately started after enzyme addition with the addition of 45 μL of the FRET substrate and monitored for 60-90 minutes at λex485/λem520 in a Synergy4 plate reader from BioTek (Winooski, Vt.).

[5] = 1 uM for 90 minutes, then washed free of compound

T1 sequence (P10721 26-976): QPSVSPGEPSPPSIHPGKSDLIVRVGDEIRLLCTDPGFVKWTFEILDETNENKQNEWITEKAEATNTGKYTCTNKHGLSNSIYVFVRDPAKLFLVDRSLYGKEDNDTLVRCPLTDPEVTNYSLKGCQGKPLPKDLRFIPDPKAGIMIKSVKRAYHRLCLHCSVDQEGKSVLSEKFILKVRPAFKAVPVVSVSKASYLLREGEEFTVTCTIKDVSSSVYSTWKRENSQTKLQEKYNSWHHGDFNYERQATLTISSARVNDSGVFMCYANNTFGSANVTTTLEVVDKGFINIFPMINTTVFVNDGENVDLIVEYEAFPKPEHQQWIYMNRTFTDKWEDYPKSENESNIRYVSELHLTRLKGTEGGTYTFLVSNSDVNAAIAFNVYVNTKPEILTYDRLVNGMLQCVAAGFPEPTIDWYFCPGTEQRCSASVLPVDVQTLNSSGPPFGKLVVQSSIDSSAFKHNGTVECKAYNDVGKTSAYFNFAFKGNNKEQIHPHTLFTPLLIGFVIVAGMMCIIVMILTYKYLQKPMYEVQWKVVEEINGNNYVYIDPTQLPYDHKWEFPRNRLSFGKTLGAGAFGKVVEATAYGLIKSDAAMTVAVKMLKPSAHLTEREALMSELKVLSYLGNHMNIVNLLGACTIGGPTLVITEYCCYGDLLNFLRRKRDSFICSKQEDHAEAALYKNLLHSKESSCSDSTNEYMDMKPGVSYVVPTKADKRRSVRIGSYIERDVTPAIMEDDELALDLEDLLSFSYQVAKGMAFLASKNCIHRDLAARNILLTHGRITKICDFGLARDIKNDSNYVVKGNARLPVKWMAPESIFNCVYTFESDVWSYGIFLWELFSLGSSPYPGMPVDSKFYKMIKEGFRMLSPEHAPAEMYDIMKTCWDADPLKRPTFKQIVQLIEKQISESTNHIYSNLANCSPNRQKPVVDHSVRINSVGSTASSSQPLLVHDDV
T2 sequence (P10721 26-976 K642E): as the sequence (P10721 26-976) above, with K617E counted along it
Chain of HCV NS3/4A 1b protease D168A (P26662 1027-1208 D1194A): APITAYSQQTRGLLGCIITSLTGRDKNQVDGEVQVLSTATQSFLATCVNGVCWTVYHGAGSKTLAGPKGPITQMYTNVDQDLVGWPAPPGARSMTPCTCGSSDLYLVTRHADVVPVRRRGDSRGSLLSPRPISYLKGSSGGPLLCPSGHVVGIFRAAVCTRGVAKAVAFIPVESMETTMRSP
Chain of HCV NS3/4A 1b protease D168A (P26662 1658-1711 partner limits assumed): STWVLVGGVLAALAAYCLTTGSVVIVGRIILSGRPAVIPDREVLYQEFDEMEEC
Chain of CSF1R (FMS) (P07333 20-972): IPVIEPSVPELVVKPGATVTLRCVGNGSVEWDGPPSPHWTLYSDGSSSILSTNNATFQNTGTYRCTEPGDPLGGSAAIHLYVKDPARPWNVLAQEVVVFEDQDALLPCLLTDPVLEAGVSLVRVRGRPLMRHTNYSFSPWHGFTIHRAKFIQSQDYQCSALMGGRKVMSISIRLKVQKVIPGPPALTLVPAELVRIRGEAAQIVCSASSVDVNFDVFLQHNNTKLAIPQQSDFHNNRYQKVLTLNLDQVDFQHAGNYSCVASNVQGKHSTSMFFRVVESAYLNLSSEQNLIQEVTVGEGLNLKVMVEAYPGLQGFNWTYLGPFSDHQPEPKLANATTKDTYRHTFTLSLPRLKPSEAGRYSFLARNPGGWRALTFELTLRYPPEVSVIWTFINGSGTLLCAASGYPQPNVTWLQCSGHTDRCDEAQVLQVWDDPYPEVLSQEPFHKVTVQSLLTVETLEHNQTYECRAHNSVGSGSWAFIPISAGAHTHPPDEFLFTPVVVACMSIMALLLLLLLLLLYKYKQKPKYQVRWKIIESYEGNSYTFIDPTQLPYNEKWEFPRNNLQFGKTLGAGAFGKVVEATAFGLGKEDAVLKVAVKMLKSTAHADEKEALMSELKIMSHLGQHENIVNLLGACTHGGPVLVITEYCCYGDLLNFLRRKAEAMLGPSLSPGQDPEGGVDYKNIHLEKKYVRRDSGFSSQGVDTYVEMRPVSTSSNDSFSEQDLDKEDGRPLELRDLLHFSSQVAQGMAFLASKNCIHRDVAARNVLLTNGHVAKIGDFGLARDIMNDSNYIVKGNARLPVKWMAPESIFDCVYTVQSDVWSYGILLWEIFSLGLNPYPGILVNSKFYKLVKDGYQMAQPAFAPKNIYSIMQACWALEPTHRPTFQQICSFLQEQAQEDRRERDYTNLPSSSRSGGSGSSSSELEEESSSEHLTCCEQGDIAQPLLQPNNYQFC
Chain of HCV NS3/4A 1b protease WT (P26662 1658-1711): as the sequence (P26662 1658-1711 partner limits assumed) above
Chain of HCV NS3/4A 1b protease WT (P26662 1027-1208): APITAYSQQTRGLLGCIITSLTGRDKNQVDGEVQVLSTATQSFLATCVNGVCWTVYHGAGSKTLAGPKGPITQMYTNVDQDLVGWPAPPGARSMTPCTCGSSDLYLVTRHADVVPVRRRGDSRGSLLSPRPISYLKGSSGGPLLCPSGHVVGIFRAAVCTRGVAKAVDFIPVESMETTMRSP
T3 sequence (Q06187 whole entry): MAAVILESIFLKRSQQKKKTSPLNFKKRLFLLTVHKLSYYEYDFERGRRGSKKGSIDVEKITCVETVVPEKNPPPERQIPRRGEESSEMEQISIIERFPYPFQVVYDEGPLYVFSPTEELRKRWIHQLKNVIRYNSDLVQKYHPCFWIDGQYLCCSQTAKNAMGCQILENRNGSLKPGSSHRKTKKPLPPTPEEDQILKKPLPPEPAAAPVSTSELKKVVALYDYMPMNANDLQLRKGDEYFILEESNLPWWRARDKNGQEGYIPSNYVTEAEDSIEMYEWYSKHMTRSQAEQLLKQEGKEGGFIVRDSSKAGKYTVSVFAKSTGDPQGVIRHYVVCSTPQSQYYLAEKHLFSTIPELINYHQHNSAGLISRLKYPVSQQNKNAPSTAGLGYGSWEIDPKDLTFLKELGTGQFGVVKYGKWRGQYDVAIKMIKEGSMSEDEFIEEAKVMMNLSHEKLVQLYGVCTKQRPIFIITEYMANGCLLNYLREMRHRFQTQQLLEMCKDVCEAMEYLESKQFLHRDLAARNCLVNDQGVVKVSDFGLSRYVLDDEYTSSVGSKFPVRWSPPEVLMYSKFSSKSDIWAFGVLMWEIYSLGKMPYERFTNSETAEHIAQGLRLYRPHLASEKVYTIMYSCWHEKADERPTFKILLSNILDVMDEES
Chain of CSF1R (P07333 20-972): as the sequence (P07333 20-972) above
Chain of HCV NS3/4A 1b protease (P26662 1027-1208): as the sequence (P26662 1027-1208) above
Chain of HCV NS3/4A 1b protease (P26662 1658-1711): as the sequence (P26662 1658-1711 partner limits assumed) above

covalent modification of c-KIT (site or peptide) (c-KIT [1]): NCIHR
persistence of inhibition after washout (cKIT in GIST882 cells; [5]): at least 8 hours
cKIT autophosphorylation (cKIT in GIST882 cells): inhibited
downstream signaling of ERK (cKIT in GIST882 cells): inhibited
IC50 (c-KIT [2]; inhibition of cKIT phosphorylation): 31 nM
Compound: C=CC(=O)Nc1ccc(NC(=O)Nc2ccc(Oc3ccnc(C(=O)NC)c3)cc2)cc1C(F)(F)F [Compound 7, 4-(4-(3-(4-Acrylamido-3-(trifluoromethyl)phenyl)ureido)phenoxy)-N-methylpicolinamide]

IC50 (Btk): 8600 nM
Compound: CCC(=O)Nc1cccc(Nc2cc(Nc3ccc(Oc4ccccc4)cc3)ncn2)c1 [Compound 9]

covalent modification of c-KIT (site or peptide) (c-KIT [1]): Cys788 (major) and: Cys808 (minor)
Compound: Cc1ccc(C(=O)Nc2ccc(NC(=O)CCl)c(C(F)(F)F)c2)cc1Nc1nccc(-c2cccnc2)n1 [Compound 3]

inhibition at 10 µM (CSF1R (FMS); 10 μM compound): 72%
inhibition at 1 µM (c-KIT [2]; read-out: % Inhibition of c-KIT): 82%
Compound: C=CC(=O)Nc1ccc(C(=O)Nc2ccc(C)c(Nc3nccc(-c4cccnc4)n3)c2)cc1 [Compound 1, 4-acrylamido-N-(4-methyl-3-(4-(pyridin-3-yl)pyrimidin-2-ylamino)phenyl)benzamide]

Further lines, the molecule ahead of its results:

Compound: CNC(=O)c1cc(Oc2ccc(NC(=O)Nc3ccc(Cl)c(C(F)(F)F)c3)cc2)ccn1 [Sorafenib, sorafenib, reference compound]
inhibitory activity of ckit and downstream signaling after washout (cKIT in GIST882 cells; [5]): overcome
cKIT autophosphorylation (cKIT in GIST882 cells): inhibited
downstream signaling of ERK (cKIT in GIST882 cells): inhibited

Compound: C=C[C@@H]1C[C@]1(NC(=O)[C@@H]1C[C@@H](Oc2cc(-c3ccccc3)nc3cc(OC)ccc23)CN1C(=O)CNC(=O)CC)C(=O)NS(=O)(=O)c1ccccc1 [Compound 11, reference compound]
IC50 [3]: 165 nM
EC50 (HCV RNA replicon): > 3000 nM
IC50 [4]: > 3000 nM

Compound: C=CC(=O)NCC(=O)N1C[C@H](Oc2cc(-c3ccccc3)nc3cc(OC)ccc23)C[C@H]1C(=O)N[C@]1(C(=O)NS(=O)(=O)c2ccccc2)C[C@H]1C=C [Compound 12, (2S,4R)-1-(2-acrylamidoacetyl)-4-(7-methoxy-2-phenylquinolin-4-yloxy)-N-((1R,2S)-1-(phenylsulfonylcarbamoyl)-2-vinylcyclopropyl)pyrrolidine-2-carboxamide]
IC50 [3]: 0.3 nM
EC50 (HCV RNA replicon): 204 nM
IC50 [4]: 17 nM

Compound: C=CC(=O)Nc1ccc(C(=O)Nc2ccc(C)c(Nc3nccc(-c4cccnc4)n3)c2)cc1C(F)(F)F [Compound 2, 4-Acrylamido-N-(4-methyl-3-(4-pyridin-3-yl)pyrimidin-2-ylamino)phenyl-3-(trifluoromethyl)benzamide]
inhibition at 10 µM (CSF1R (FMS)): 89%
covalent modification of CSF1R (modified peptide) (CSF1R): NCIHR

Compound: C=CC1C[C@]1(NC(=O)[C@@H]1C[C@@H](Oc2cc(-c3ccccc3)nc3cc(OC)ccc23)CN1C(=O)C(NC(=O)OC(C)(C)C)C(C)C)C(=O)NS(=O)(=O)c1ccccc1 (stereo partly shown) [Compound V-1, reference compound]
IC50 (HCV NS3/4A 1b protease): 0.4 nM

Compound: C=CC(=O)NC[C@H](NC(=O)OC(C)(C)C)C(=O)N1C[C@H](Oc2cc(-c3ccccc3)nc3cc(OC)ccc23)C[C@H]1C(=O)N[C@]1(C(=O)NS(=O)(=O)c2ccccc2)C[C@H]1C=C [Compound 6, N-[(1,1-dimethylethoxy)carbonyl]-3-[(2-propenoyl)amino]-L-alanyl-(4R)-4-[(7-methoxy-2-phenyl-4-quinolinyl)oxy]-L-prolyl-1-amino-2-ethenyl-N-(phenylsulfonyl)-(1R,2S)-cyclopropanecarboxamide]
EC50 (HCV RNA replicon): 174 nM

Reference: patent US20100185419A1, “ALGORITHM FOR DESIGNING IRREVERSIBLE INHIBITORS” (Avila Therapeutics, Inc., priority 2008, published 2010)
